Tests used:
[1] = target: Serine/threonine-protein kinase 10 (Homo sapiens) (UniProt O94804); assay: Inhibition of wild-type human partial length LOK (E16 to V314 residues) expressed in bacterial expression system assessed as residual activity at 1 uM by Kinomescan method relative to control
[2] = target: Rhodopsin kinase GRK1 (Homo sapiens) (UniProt Q15835); assay: Inhibition of wild-type human full length GRK1 (M1 to S563 residues) expressed in mammalian expression system assessed as residual activity at 1 uM by Kinomescan method relative to control
[3] = target: Serine/threonine-protein kinase ULK2 (Homo sapiens) (UniProt Q8IYT8); assay: Inhibition of wild-type human partial length ULK2 (M1 to S301 residues) expressed in mammalian expression system assessed as residual activity at 1 uM by Kinomescan method relative to control
[4] = target: Serine/threonine-protein kinase 4 (Homo sapiens) (UniProt Q13043); assay: Inhibition of wild-type human full length MST1 (M1 to F487 residues) expressed in bacterial expression system assessed as residual activity at 1 uM by Kinomescan method relative to control
[5] = target: Tyrosine-protein kinase Lyn (Homo sapiens) (UniProt P07948); assay: Inhibition of human LYN B assessed as residual activity at 1 uM by Kinomescan method relative to control
[6] = target: Focal adhesion kinase 1 (Homo sapiens) (UniProt Q05397); assay: Inhibition of wild-type human partial length FAK (D402 to R696 residues) expressed in bacterial expression system assessed as residual activity at 1 uM by Kinomescan method relative to control
[7] = target: cGMP-dependent protein kinase 2 (Homo sapiens) (UniProt Q13237); assay: Inhibition of wild-type human partial length PRKG2 (S422 to F762 residues) expressed in mammalian expression system assessed as residual activity at 1 uM by Kinomescan method relative to control
[8] = target: Serine/threonine-protein kinase MARK2 (Homo sapiens) (UniProt Q7KZI7); assay: Inhibition of wild-type human partial length MARK2 (M1 to R450 residues) expressed in bacterial expression system assessed as residual activity at 1 uM by Kinomescan method relative to control
[9] = target: Beta-adrenergic receptor kinase 1 (Homo sapiens) (UniProt P25098); assay: Inhibition of wild-type human full length GRK2 (M1 to L689 residues) expressed in mammalian expression system assessed as residual activity at 1 uM by Kinomescan method relative to control
[10] = target: Muscle, skeletal receptor tyrosine-protein kinase (Homo sapiens) (UniProt O15146); assay: Inhibition of wild-type human partial length MUSK (M553 to V869 residues) expressed in bacterial expression system assessed as residual activity at 1 uM by Kinomescan method relative to control
[11] = target: Mitogen-activated protein kinase 10 (Homo sapiens) (UniProt P53779); assay: Inhibition of wild-type human partial length JNK3 (V28 to Q422 residues) expressed in mammalian expression system assessed as residual activity at 1 uM by Kinomescan method relative to control
[12] = target: CDK2/Cyclin A1 (Homo sapiens) (UniProt P24941+P78396); assay: Inhibition of CDK2/Cyclin A1 (unknown origin) assessed as residual activity at 1 uM by Kinomescan method relative to control; assay type: protein-complex assay
[13] = target: Mitogen-activated protein kinase kinase kinase 11 (Homo sapiens) (UniProt Q16584); assay: Inhibition of wild-type human partial length MLK3 (I77 to W399 residues) expressed in bacterial expression system assessed as residual activity at 1 uM by Kinomescan method relative to control
[14] = Lipophilicity, logD of compound at pH 7.4; details: buffer
[15] = target: Non-receptor tyrosine-protein kinase TNK1 (Homo sapiens) (UniProt Q13470); assay: Inhibition of wild-type human full length TNK1 (M1 to P661 residues) expressed in bacterial expression system assessed as residual activity at 1 uM by Kinomescan method relative to control
[16] = target: Tyrosine-protein kinase FRK (Homo sapiens) (UniProt P42685); assay: Inhibition of wild-type human partial length FRK (A215 to F503 residues) expressed in bacterial expression system assessed as residual activity at 1 uM by Kinomescan method relative to control
[17] = target: Serine/threonine-protein kinase 26 (Homo sapiens) (UniProt Q9P289); assay: Inhibition of wild-type human full length MST4 (M1 to P416 residues) expressed in mammalian expression system assessed as residual activity at 1 uM by Kinomescan method relative to control
[18] = target: Solute carrier organic anion transporter family member 1B1 (Homo sapiens, UniProt Q9Y6L6); assay: Inhibition of human OATP1B1
[19] = target: RAF proto-oncogene serine/threonine-protein kinase (Homo sapiens) (UniProt P04049); assay: Inhibition of wild-type human partial length RAF1 (I330 to T640 residues) expressed in bacterial expression system assessed as residual activity at 1 uM by Kinomescan method relative to control
[20] = target: Mitogen-activated protein kinase 11 (Homo sapiens) (UniProt Q15759); assay: Inhibition of wild-type human full length p38-beta (M1 to Q364 residues) expressed in bacterial expression system assessed as residual activity at 1 uM by Kinomescan method relative to control
[21] = target: Cyclin-dependent kinase 7/ cyclin H (Homo sapiens) (UniProt P51946+P50613); assay: Inhibition of wild-type human full length CDK7 (M1 to L344 residues)/cyclin H expressed in mammalian expression system assessed as residual activity at 1 uM by Kinomescan method relative to control
[22] = target: Mitogen-activated protein kinase kinase kinase kinase 1 (Homo sapiens) (UniProt Q92918); assay: Inhibition of wild-type human full length HPK1 (M1 to R799 residues) expressed in bacterial expression system assessed as residual activity at 1 uM by Kinomescan method relative to control
[23] = target: SRSF protein kinase 1 (Homo sapiens) (UniProt Q96SB4); assay: Inhibition of wild-type human full length SRPK1 (M1 to S655 residues) expressed in bacterial expression system assessed as residual activity at 1 uM by Kinomescan method relative to control
[24] = target: CDK6/cyclin D3 (Homo sapiens) (UniProt P30281+Q00534); assay: Inhibition of wild-type human full length CDK6 (M1 to A326 residues)/cyclin D3 expressed in mammalian expression system assessed as residual activity at 1 uM by Kinomescan method relative to control
[25] = target: Tyrosine-protein kinase BTK (Homo sapiens) (UniProt Q06187); assay: Inhibition of wild-type human full length BTK (M1 to S659 residues) expressed in mammalian expression system assessed as residual activity at 1 uM by Kinomescan method relative to control
[26] = In vivo inhibition of LRRK2 in C57BL6 mouse assessed as reduction in Ser935 phosphorylation in lung at 45 mg/kg, po after 1 hr by Western blot analysis; assay type: functional; parameters: scale not given: the % may be the effect or the level left
[27] = target: Testis-specific serine/threonine-protein kinase 2 (Homo sapiens) (UniProt Q96PF2); assay: Inhibition of TSSK2 (unknown origin) assessed as residual activity at 1 uM by Kinomescan method relative to control

Serine/threonine-protein kinase 26 (Homo sapiens), sequence (Q9P289 2-416 limits assumed): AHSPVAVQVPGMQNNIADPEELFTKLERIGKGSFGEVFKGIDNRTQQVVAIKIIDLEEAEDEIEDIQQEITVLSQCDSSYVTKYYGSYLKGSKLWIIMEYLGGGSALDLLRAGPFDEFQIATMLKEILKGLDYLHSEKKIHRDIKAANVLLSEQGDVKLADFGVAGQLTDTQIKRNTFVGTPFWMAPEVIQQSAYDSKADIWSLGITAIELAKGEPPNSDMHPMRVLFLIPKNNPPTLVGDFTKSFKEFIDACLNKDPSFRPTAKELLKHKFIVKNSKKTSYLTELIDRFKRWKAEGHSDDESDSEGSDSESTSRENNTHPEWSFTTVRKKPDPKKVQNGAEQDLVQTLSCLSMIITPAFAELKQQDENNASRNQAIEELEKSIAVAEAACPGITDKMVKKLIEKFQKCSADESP
Tyrosine-protein kinase BTK (Homo sapiens), sequence (Q06187 whole entry, the tested form may be a part): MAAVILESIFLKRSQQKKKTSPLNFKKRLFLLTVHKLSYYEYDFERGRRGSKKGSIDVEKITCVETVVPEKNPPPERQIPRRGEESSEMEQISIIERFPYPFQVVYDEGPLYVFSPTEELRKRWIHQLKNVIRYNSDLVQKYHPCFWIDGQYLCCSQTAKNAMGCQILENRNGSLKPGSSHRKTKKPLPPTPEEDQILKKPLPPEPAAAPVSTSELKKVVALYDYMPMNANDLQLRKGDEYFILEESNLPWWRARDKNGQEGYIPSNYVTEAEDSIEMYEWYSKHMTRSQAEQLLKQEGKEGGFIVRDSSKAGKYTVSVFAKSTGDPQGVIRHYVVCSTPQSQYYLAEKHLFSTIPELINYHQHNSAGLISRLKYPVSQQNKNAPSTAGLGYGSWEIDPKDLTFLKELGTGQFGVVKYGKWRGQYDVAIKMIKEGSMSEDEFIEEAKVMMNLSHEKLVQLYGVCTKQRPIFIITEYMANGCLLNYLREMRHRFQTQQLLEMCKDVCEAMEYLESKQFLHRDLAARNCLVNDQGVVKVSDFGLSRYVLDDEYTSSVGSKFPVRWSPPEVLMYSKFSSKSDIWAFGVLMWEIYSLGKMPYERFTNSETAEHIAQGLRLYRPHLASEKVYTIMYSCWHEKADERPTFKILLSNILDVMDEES
SRSF protein kinase 1 (Homo sapiens), sequence (Q96SB4 whole entry, the tested form may be a part): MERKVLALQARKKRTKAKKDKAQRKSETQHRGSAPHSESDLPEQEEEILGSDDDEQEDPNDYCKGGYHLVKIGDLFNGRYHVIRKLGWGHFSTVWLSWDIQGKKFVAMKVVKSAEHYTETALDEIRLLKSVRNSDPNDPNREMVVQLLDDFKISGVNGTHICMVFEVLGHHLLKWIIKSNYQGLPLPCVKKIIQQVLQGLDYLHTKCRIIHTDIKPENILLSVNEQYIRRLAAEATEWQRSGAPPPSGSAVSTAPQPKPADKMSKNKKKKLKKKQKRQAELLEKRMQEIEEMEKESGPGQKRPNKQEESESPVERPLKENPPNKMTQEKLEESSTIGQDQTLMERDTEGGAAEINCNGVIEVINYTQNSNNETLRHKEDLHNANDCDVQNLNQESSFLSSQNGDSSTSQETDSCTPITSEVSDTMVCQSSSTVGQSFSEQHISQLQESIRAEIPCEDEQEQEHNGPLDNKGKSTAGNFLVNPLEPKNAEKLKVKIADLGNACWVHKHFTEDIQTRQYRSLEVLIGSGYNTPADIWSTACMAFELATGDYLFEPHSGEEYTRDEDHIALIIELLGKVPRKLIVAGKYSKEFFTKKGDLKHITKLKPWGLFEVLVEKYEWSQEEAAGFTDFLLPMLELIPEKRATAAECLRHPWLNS
Mitogen-activated protein kinase kinase kinase 11 (Homo sapiens), sequence (Q16584 whole entry, looked up, the tested form may be a part): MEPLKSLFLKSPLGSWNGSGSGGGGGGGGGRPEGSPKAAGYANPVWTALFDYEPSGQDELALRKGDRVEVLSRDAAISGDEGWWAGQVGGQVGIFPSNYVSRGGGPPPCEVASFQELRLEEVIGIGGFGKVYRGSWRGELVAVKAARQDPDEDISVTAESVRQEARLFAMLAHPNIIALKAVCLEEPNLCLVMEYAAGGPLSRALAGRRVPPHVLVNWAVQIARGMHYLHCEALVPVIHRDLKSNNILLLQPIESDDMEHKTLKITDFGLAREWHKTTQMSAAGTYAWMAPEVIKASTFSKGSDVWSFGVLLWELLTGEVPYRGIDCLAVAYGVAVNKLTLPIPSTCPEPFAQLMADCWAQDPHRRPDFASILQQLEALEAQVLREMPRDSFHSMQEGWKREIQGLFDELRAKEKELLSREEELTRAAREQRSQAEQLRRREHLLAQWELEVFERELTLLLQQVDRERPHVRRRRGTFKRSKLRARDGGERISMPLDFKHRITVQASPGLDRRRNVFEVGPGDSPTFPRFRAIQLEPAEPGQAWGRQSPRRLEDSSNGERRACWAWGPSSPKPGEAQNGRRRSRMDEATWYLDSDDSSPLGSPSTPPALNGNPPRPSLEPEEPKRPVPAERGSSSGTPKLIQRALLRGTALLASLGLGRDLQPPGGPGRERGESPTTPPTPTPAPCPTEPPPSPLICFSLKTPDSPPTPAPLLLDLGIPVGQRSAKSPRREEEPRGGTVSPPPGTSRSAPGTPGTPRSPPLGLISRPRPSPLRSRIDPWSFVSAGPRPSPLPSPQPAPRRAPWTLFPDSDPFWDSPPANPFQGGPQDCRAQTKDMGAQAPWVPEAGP
Mitogen-activated protein kinase kinase kinase kinase 1 (Homo sapiens), sequence (Q92918 whole entry, looked up, the tested form may be a part): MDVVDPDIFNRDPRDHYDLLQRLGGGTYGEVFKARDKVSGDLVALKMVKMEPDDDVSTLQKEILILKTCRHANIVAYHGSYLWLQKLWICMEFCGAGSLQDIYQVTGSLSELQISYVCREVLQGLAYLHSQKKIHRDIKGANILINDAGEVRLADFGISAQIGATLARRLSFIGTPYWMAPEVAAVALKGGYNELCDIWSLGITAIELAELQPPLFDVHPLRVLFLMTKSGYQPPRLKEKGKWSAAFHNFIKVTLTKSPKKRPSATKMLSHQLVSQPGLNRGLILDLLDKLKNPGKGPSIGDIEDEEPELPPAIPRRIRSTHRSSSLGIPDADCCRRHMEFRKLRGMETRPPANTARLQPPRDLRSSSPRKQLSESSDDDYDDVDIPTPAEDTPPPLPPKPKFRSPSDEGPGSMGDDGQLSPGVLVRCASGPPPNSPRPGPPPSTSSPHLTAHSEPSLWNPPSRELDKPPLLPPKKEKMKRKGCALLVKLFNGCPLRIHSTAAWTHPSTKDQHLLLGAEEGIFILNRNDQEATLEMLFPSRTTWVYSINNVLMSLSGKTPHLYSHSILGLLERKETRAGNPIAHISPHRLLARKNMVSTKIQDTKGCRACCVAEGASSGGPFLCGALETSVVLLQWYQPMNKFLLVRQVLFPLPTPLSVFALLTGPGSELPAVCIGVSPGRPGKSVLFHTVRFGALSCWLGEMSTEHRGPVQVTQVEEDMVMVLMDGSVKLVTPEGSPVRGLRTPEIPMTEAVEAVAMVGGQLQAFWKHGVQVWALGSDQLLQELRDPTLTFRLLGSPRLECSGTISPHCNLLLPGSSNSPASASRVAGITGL
Serine/threonine-protein kinase ULK2 (Homo sapiens), sequence (Q8IYT8 whole entry, the tested form may be a part): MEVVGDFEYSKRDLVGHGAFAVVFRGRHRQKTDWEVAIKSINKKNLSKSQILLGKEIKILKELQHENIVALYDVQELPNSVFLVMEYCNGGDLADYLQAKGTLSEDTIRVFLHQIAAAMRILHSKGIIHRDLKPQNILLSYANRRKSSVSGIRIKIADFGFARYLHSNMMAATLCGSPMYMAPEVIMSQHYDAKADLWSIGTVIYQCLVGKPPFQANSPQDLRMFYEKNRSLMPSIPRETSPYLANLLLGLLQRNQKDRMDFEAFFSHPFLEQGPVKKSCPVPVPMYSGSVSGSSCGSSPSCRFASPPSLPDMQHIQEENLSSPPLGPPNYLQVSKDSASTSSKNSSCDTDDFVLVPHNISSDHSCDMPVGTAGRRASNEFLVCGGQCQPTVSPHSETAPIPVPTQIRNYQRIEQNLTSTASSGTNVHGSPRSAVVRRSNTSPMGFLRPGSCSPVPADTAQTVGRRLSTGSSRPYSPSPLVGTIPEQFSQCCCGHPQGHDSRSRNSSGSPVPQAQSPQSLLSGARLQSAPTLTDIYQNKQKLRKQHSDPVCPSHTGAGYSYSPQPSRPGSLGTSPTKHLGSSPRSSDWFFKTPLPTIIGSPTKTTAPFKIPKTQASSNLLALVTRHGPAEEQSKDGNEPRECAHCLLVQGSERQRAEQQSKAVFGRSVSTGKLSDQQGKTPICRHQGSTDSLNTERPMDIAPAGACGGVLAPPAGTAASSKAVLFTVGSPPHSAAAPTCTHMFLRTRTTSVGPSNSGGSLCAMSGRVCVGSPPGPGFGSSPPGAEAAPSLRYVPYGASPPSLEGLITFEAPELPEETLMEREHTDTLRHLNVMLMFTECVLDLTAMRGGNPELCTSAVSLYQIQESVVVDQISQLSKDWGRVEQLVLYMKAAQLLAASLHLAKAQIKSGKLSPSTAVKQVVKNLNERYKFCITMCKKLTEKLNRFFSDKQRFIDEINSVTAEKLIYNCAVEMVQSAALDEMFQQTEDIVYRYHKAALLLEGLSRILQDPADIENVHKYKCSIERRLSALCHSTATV
Serine/threonine-protein kinase 4 (Homo sapiens), sequence (Q13043 whole entry, the tested form may be a part): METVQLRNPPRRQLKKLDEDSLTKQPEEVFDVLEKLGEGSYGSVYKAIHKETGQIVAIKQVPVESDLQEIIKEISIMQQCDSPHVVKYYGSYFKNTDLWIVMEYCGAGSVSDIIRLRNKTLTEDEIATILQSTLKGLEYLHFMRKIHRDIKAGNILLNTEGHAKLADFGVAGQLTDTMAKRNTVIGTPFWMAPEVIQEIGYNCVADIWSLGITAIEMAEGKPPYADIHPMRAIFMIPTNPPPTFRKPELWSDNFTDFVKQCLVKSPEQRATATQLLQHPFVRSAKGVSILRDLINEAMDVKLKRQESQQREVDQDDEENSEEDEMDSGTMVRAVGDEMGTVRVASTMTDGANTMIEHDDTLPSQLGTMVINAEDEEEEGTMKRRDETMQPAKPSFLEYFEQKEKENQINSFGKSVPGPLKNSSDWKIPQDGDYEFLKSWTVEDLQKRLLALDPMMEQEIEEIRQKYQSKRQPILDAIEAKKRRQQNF

Q: What does the source list for `CCOc1nc(Nc2ccc(C(=O)N3CCOCC3)cc2OC)nc2[nH]ccc12`?
A: Activity [1]: 92.7%; Activity [2]: 95.2%; Activity [3]: 101%; Activity [4]: 99.8%; Activity [5]: 97.5%; Activity [6]: 39.5%; Activity [7]: 104%; Activity [8]: 96%; Activity [9]: 100%; Activity [10]: 72.9%; Activity [11]: 100%; Activity [12]: 74%; Activity [13]: 101%; logD [14]: 4.5; Activity [15]: 46.5%; Activity [16]: 90.6%; Activity [17]: 88.4%; IC50 [18]: 12.6 µM; Activity [19]: 97.5%; Activity [20]: 101%; Activity [21]: 93.8%; Activity [22]: 86.6%; Activity [23]: 87.4%; Activity [24]: 96.5%; Activity [25]: 101%; Activity [26]: 80%; Activity [27]: 20.9%

From ChEMBL document CHEMBL4715821, “Discovery of 4-ethoxy-7H-pyrrolo[2,3-d]pyrimidin-2-amines as potent, selective and orally bioavailable LRRK2 inhibitors” (Bioorg Med Chem Lett, 2018)
